This is an account of results in patent US20120295935A1, “MIXED AMINAL PHARMACEUTICAL COMPOSITIONS AND USES THEREOF” (priority 2010, published 2012).

For experiment [1], the system named is MC3T3 cells. Description: Mineralization, von-Kossa staining. Format: cell-based, mouse. The conditions noted are these: 10 days. The method, then: To evaluate the effects of salubrinal on mineralization, MC3T3 cells were grown in the presence of 50 μg/ml of ascorbic acid and 5 mM β-glycerophosphate for 10 days with and without 10 or 50 μM salubrinal, and von-Kossa staining was conducted. Cells were fixed in 10% formalin and incubated in 5% silver nitrate for 30 min. After rinsing in PBS, staining was developed in 5% sodium carbonate for 2 min. They were counterstained with 0.1% nuclear fast red solution. […] In the field-of-view with 10× objective lens, the mean number of positive dots was 3.2-fold (10 μM salubrinal) and 2.9-fold (50 μM salubrinal) more than that for control cells without salubrinal treatment (FIG. 9).

Another experiment has as its system MLO-A5 osteocyte cells. The experiment can be described thus: mRNA levels by real-time PCR in osteocyte cells. Type of experiment: cell-based. The conditions noted are these: 100 nM-50 μM for 1-24 h. Here is the method: (§1) Responses to Administration of Salubrinal—In vitro responses to salubrinal: In order to evaluate the effects of salubrinal, MC3T3 E1 osteoblast-like cells and MLO-A5 osteocyte cells (Barragan-Adjemian, C., et al., “Mechanism by which MLO-A5 late osteoblasts/early osteocytes mineralize in culture: similarities with mineralization of lamellar bone,” Calcif. Tissue Int. 79:340-353 (2006)) were incubated with salubrinal at 100 nM-50 μM for 1-24 h. The mRNA levels of the selected genes, TF4, ATF3, Osteocalcin (OCN), and CHOP, were determined by real-time PCR. […] In MC3T3 cells, for instance, the Osteocalcin mRNA level, which is regulated by ATF4 and Runx2 (Xiao et al. 2005), was elevated 11.8±0.2 fold at 10 μM salubrinal in 24 h.
(In general: In qPCR the cycle at which signal appears reflects the starting amount.)

For experiment [2], the system named is rat pheochromocytoma cell line. The conditions noted are these: cited from earlier work.
For experiment [3], the system named is MC3T3 cells. Description: mRNA expression levels by real-time PCR. Type of experiment: cell-based, mouse. Here is the method:
Responses to Administration of Thapsigargin—Upregulation of transcription factors linked to bone formation as well as PERK: The effects of 10 nM thapsigargin on mRNA expression levels of ISR-linked genes (ATF4, ATF3, and CHOP) as well as genes involved in bone remodeling (Runx2, Osterix, and Rank1), were examined (FIG. 5). […] Out of 4 transcription factors (ATF4, ATF3, Runx2, and Osterix), the level of ATF4 mRNA was elevated 2-4 fold throughout the treatments. […] The mRNA level of type 1 collagen was elevated 5 h and 10 h for T1h (1 h exposure at 10 nM).
as §1

The subject of experiment [4] is eIF2α-p (phosphorylated form of eukaryotic initiation factor 2—subunit α). Description: Western analysis of eIF2α-p in response to salubrinal. Format: cell-based, mouse. The conditions noted are these: 10 μM or 50 μM, 1 to 5 h and 1 to 2 days. The source says:
MS3T3 osteoblast-like cells were used to evaluate the level of eIF2α-p (phosphorylated form of eukaryotic initiation factor 2—subunit α) in response to salubrinal.

The test system of experiment [5] is brainstem motoneurons in mice. The conditions noted are these: hypoxia and reoxygenation events; cited from earlier work.
For the next experiment, the system named is mouse hippocampus. Particulars: direct injection; cited from earlier work.

For the molecule `O=C(/C=C/c1ccccc1)NC(NC(=S)Nc1cccc2cccnc12)C(Cl)(Cl)Cl` (stereo not drawn) [salubrinal], the entries for the “mean number of von-Kossa positive dots vs control cells” value in the experiment with MC3T3 cells [1] (10 μM) and in the experiment with MC3T3 cells [1] (50 μM) were 3.2 fold and 2.9 fold, respectively. Besides, the “mRNA levels of the selected genes” value in the experiment with MLO-A5 osteocyte cells is listed as “did not show any significant alterations”. In addition, the “protection from ER stress-induced apoptosis” value in experiment [2] is “protect”. Further, the “Osteocalcin mRNA level” value with MC3T3 cells [3] (10 μM in 24 h) worked out at 11.8±0.2 fold. Moreover, the “mRNA levels of the selected genes (TF4, ATF3, Osteocalcin, CHOP)” value with MC3T3 cells [3] (MC3T3 cells, 100 nM-50 μM for 1-24 h) is recorded as “upregulated”. The “phosphorylated level of eIF2α” value in experiment [4] is on record as “Elevated”. Moreover, the motoneuronal injury entry in experiment [5] is “suppressed”. Also, in the experiment on mouse hippocampus, the “ATF4-dependent long-term synaptic plasticity and memory” value is on record as “modulated”.
